Measured values from ChEMBL document CHEMBL1137452, “Synthesis of disulfide esters of dialkylaminocarbothioic acid as potent, non-detergent spermicidal agents” (Bioorg Med Chem, 2007).
In brackets after ≈: the same amount, converted by molar mass. Activity calls are given as the source filed them. The calls are words filed in the database; no cut-off is given here.

How the values were obtained:
Homo sapiens [1] = organism: Homo sapiens; test: Spermicidal activity against human spermatozoa; format: functional
Homo sapiens [2] = organism: Homo sapiens; test: Spermicidal activity against human spermatozoa at 1.0% w/v; format: functional
Candida albicans [3] = test: Antifungal activity against Candida albicans ATCC 10231 after 48 hrs by broth micro dilution technique; format: functional, organism-based; settings: ATCC 10231, 48 h
Candida albicans [4] = test: Antifungal activity against Candida albicans ATCC 66027 after 48 hrs by broth micro dilution technique; format: functional, organism-based; settings: ATCC 66027, 48 h
Candida albicans [5] = test: Antifungal activity against Candida albicans MTCC 183 after 48 hrs by broth micro dilution technique; format: functional, organism-based; settings: MTCC 183, 48 h
Candida albicans [6] = test: Antifungal activity against Candida albicans after 48 hrs by broth micro dilution technique; format: functional, organism-based
Candida albicans [7] = test: Antifungal activity against Candida albicans ATCC 60193 after 48 hrs by broth micro dilution technique; format: functional, organism-based; settings: ATCC 60193, 48 h
Candida albicans [8] = test: Antifungal activity against Candida albicans MTCC 1346 after 48 hrs by broth micro dilution technique; format: functional, organism-based; settings: MTCC 1346, 48 h
Candida parapsilosis = test: Antifungal activity against Candida parapsilosis ATCC 22019 after 48 hrs by broth micro dilution technique; format: functional, organism-based; settings: Lodderomyces parapsilosis, ATCC 22019, 48 h
Pichia kudriavzevii = test: Antifungal activity against Candida krusei ATCC 6258 after 48 hrs by broth micro dilution technique; format: functional, organism-based; settings: ATCC 6258, 48 h
Candida albicans [9] = test: Antifungal activity against Candida albicans ATCC 10453 after 48 hrs by broth micro dilution technique; format: functional, organism-based; settings: ATCC 10453, 48 h

Which MEC (Homo sapiens [1]) does the source give for `CN1CCN(CC(CSC(=O)N2CCCC2)SSC(CSC(=O)N2CCCC2)CN2CCN(C)CC2)CC1` (racemic) here?
The MEC was 1 %w/v.

How did the MEC (Homo sapiens [1]) turn out when `O=C(SCC(CN1CCCC1)SSC(CSC(=O)N1CCOCC1)CN1CCCC1)N1CCOCC1` (racemic) was run?
Its MEC is 0.1 %w/v.

For `O=C(SCC(CN1CCCCC1)SSC(CSC(=O)N1CCOCC1)CN1CCCCC1)N1CCOCC1` (racemic), which MEC (Homo sapiens [1]) is on record?
Its MEC is 0.5 %w/v.

With `O=C(SCC(CN1CCOCC1)SSC(CSC(=O)N1CCCC1)CN1CCOCC1)N1CCCC1` (racemic) as the compound, how does the Activity (Homo sapiens [2]) read?
Its Activity is “inactive”.

Which MEC (Homo sapiens [1]) does the source give for `O=C(SCC(CN1CCOCC1)SSC(CSC(=O)N1CCCCC1)CN1CCOCC1)N1CCCCC1` (racemic) here?
The MEC was 0.1 %w/v.

`O=C(SCC(CN1CCOCC1)SSC(CSC(=O)N1CCOCC1)CN1CCOCC1)N1CCOCC1` (racemic) was tested. Which Activity (Homo sapiens [2]) did it give?
Its Activity is “inactive”.

`CCN(CC)C(=O)SCC(CN1CCCCC1)SSC(CSC(=O)N(CC)CC)CN1CCCCC1` (racemic; 26) was tested. Which Activity (Homo sapiens [2]) did it give?
Its Activity is “inactive”.

Which Activity (Homo sapiens [2]) does the source give for `CCN(CC)C(=O)SCC(CN1CCCCC1)SSC(CSC(=O)N(CC)CC)CN1CCCCC1` (racemic; 29) here?
Its Activity is “inactive”.

`OC(Cn1cncn1)(Cn1cncn1)c1ccc(F)cc1F` [FLUCONAZOLE] was tested. Which IC50 (Candida albicans [3]) did it give?
Its IC50 is 0.35 µg/mL (≈ 1.14 µM).

What about the MIC (Candida albicans [3]) of the same compound?
Its MIC is 1 µg/mL (≈ 3.27 µM).

What about the IC50 (Candida albicans [4]) of the same compound?
Its IC50 is 0.18 µg/mL (≈ 0.588 µM).

And the MIC (Candida albicans [4])?
Its MIC is 0.25 µg/mL (≈ 0.816 µM).

What about the IC50 (Candida albicans [5]) of the same compound?
The IC50 was 0.26 µg/mL (≈ 0.849 µM).

What about the MIC (Candida albicans [5]) of the same compound?
Its MIC is 0.5 µg/mL (≈ 1.63 µM).

And the IC50 (Candida albicans [6])?
Its IC50 is 0.13 µg/mL (≈ 0.424 µM).

What about the MIC (Candida albicans [6]) of the same compound?
The MIC was 0.5 µg/mL (≈ 1.63 µM).

What about the IC50 (Candida albicans [7]) of the same compound?
The IC50 was 0.1 µg/mL (≈ 0.327 µM).

What about the MIC (Candida albicans [7]) of the same compound?
The MIC was 0.25 µg/mL (≈ 0.816 µM).

What about the IC50 (Candida albicans [8]) of the same compound?
Its IC50 is 0.58 µg/mL (≈ 1.89 µM).

What about the MIC (Candida albicans [8]) of the same compound?
Its MIC is 2 µg/mL (≈ 6.53 µM).

What about the MEC (Homo sapiens [1]) of the same compound?
The MEC was 0.1 %w/v.

What about the IC50 (Candida parapsilosis) of the same compound?
The IC50 was 0.21 µg/mL (≈ 0.686 µM).

And the MIC (Candida parapsilosis)?
Its MIC is 1 µg/mL (≈ 3.27 µM).

What about the IC50 (Pichia kudriavzevii) of the same compound?
The IC50 was 1.38 µg/mL (≈ 4.51 µM).

And the MIC (Pichia kudriavzevii)?
The MIC was 4 µg/mL (≈ 13.1 µM).

What about the IC50 (Candida albicans [9]) of the same compound?
Its IC50 is 0.63 µg/mL (≈ 2.06 µM).

And the MIC (Candida albicans [9])?
Its MIC is 1 µg/mL (≈ 3.27 µM).

How did the IC50 (Candida albicans [3]) turn out when `CCCCCCCCCc1ccc(OCCOCCOCCOCCOCCOCCOCCOCCOCCO)cc1` [NONOXYNOL 9] was run?
The IC50 was > 50 µg/mL.

And the MIC (Candida albicans [3])?
Its MIC is > 50 µg/mL.

What about the IC50 (Candida albicans [4]) of the same compound?
The IC50 was > 50 µg/mL.

What about the MIC (Candida albicans [4]) of the same compound?
Its MIC is > 50 µg/mL.

What about the IC50 (Candida albicans [5]) of the same compound?
The IC50 was 41 µg/mL (≈ 66.5 µM).

What about the MIC (Candida albicans [5]) of the same compound?
The MIC was > 50 µg/mL.

And the IC50 (Candida albicans [6])?
The IC50 was 46 µg/mL (≈ 74.6 µM).

What about the MIC (Candida albicans [6]) of the same compound?
The MIC was > 50 µg/mL.

And the IC50 (Candida albicans [7])?
Its IC50 is > 50 µg/mL.

What about the MIC (Candida albicans [7]) of the same compound?
Its MIC is > 50 µg/mL.

And the IC50 (Candida albicans [8])?
Its IC50 is > 50 µg/mL.

And the MIC (Candida albicans [8])?
Its MIC is > 50 µg/mL.

And the MEC (Homo sapiens [1])?
The MEC was 0.05 %w/v.

And the IC50 (Candida parapsilosis)?
The IC50 was 47 µg/mL (≈ 76.2 µM).

What about the MIC (Candida parapsilosis) of the same compound?
Its MIC is 50 µg/mL (≈ 81.1 µM).

And the IC50 (Pichia kudriavzevii)?
Its IC50 is 48 µg/mL (≈ 77.8 µM).

What about the MIC (Pichia kudriavzevii) of the same compound?
The MIC was 50 µg/mL (≈ 81.1 µM).

And the IC50 (Candida albicans [9])?
Its IC50 is > 50 µg/mL.

And the MIC (Candida albicans [9])?
The MIC was > 50 µg/mL.
